Columns and labels:
activated CD4+ T cells [1] = assay: IL-2 withdrawal assay and assessment of cell viability, CD4+ T cells; assay type: cell-based, human; conditions: for survival of activated CD4+ T cells in the absence of exogenous cytokines: metabolites 3 mM, except for spermidine 0.1 mM, 5 days after IL-2 withdrawal
Protocol: Naïve CD4 T cells were activated with plate-bound CD3 and CD28 antibodies. 48 h after activation IL-2 was added to culture media (500 U ml^−1). After a further 3 days of culturing, cells were washed, counted and equal cell numbers were plated in medium devoid of IL-2. The withdrawal medium was no longer supplemented with e.g. L-arginine. Cell viability was assessed with annexin V.

arginase = arginase inhibition; cited from earlier work
human naïve CD4+ T cells [2] = assay: kinetic metabolome analysis of activated T cells; assay type: cell-based; conditions: added to the culture medium at the same concentration as L-arginine (3 mM)
Protocol: (B) Differential analysis of the glycolytic pathway between naïve CD4^+ T cells cultured in L-Arg medium or Ctrl medium, 96 h after activation. Log 2 fold changes of proteins and metabolites are color-coded. […] 3-P-Glycerate and 2-P-Glycerate could not be distinguished as they have the same mass. (C) 72 h-activated T cells were plated in fresh medium and glucose consumption was determined enzymatically after 24 h; n=9 from three donors. (D) Seahorse experiment performed with activated (96 h) T cells from one donor. Oligomycin was injected after 56 min, FCCP after 96 min, and antimycin (to inhibit the respiratory chain) after 136 min. Data are representative of 5 independent experiments with different donors.
(A) Human naïve CD4^+ T cells were activated in normal medium or in L-Arg medium. Nitric oxide formation was measured using DAF-FM diacetate at different time points.
Naïve CD4^+ T cells were either analyzed directly after isolation or at different time points after activation with CD3 and CD28 antibodies. Cells were washed twice in 96-well plates with 75 mM ammonium carbonate at pH 7.4 and snap frozen in liquid nitrogen. Metabolites were extracted three times with hot (>70° C.) 70% ethanol. Extracts were analyzed by flow injection—time of flight mass spectrometry on an Agilent 6550 QTOF instrument operated in the negative mode, as described previously (Fuhrer et al., 2011). Typically 5,000-12,000 ions with distinct mass-to-charge (m/z) ratio could be identified in each batch of samples. Ions were putatively annotated by matching their measured mass to that of the compounds listed by the KEGG database for Homo sapiens, allowing a tolerance of 0.001 Da. Only deprotonated ions (without adducts) were considered in the analysis. In case of multiple matching, such as in the case of structural isomers, all candidates were retained.

96 h-activated T cells = assay: 13C-L-arginine metabolic tracing (metabolic flux experiments); assay type: cell-based, human; conditions: addition of arginase inhibitor, 13C6-L-arginine pulse
Protocol: FIG. 2. L-arginine is rapidly metabolized upon activation (A) Intracellular abundance of L-arginine in non-activated (non-act) and activated naïve CD4^+ T cells (CD3+CD28 antibodies). Boxplot, n=30 from three donors, each in a different color; a.u. arbitrary units. (B) Kinetics of ^3H-L-arginine uptake during a 15 min pulse. Box plot, n=5 from three donors. (C) Uptake, proteome incorporation and intracellular abundance of the indicated amino acids. Barplot (left): 5×10^4 cells were activated for 4 days and consumption of amino acids from medium was analyzed. Essential amino acids are in grey; n=4 from four donors, error bars represent s.e.m. […] Heat map (right): Intracellular amino acid abundance relative to naive T cells over time as determined by MS; n=30 from three donors. […] Black dots are metabolites that were not detected by MS. Only enzymes that were detected by MS are shown. […] 96 h-activated T cells were pulsed with ^13C6-L-arginine and the metabolic fate was analyzed by LC-MS/MS at different time points. AFL, Apparent fractional labeling; n=4 from two donors. ^13C Citrulline was not detected.
Naïve CD4^+ T cells were activated and 4 days, later extensively washed and pulsed with L-arginine free RPMI medium containing 1 mM [U-^13C]-L-Arginine hydrochloride (Sigma). […] Metabolites were extracted and analyzed by HILIC LC-MS/MS. […]

[3] = tested on: C56BL/6 wild type (Wt) or Arg2−/− T cells; assay: In vitro T cell survival with wild type or Arg2-/- mouse T cells; assay type: cell-based; conditions: norNOHA 500 μM, 2 days after IL-2 withdrawal
activated CD4+ T cells [4] = assay: 3H-arginine uptake assay and calculation of proteome incorporation; assay type: cell-based, human; conditions: 3 mM added as competitive uptake inhibitor, 15 minutes pulse, 3 day-activated CD4+ T cells
Protocol: (§1) FIG. 10. […] (A) Kinetics of T cell proliferation. Human naïve CD4+ T cells were labeled with CellTraceViolet (CTV) and activated in Ctrl medium or in L-Arg medium or in medium supplemented with 3 mM D-arginine or 3 mM L-arginine together with 3 mM L-lysine. Cell divisions were monitored at 48 h and 72 h by flow cytometry. (B) CTV-labeled CD4+ T cells were activated in normal medium or L-Arg medium and the dilution of CTV was measured over time by flow cytometry. n=5 from two donors. (C) 3H-L-arginine uptake by 3 day-activated CD4+ T cells during a 15 minutes pulse. Where indicated, 3 mM L-arginine, D-arginine or L-lysine was added to the culture medium as a competitive uptake inhibitor. n=7 for control, n=9 for L-Arg, n=5 for D-Arg, and n=9 for L-Lys. Bars represent the s.e.m.

human naïve CD4+ T cells [5] = assay: T cell proliferation (CellTrace Violet dilution); assay type: cell-based
Protocol: as §1

Structure (SMILES): NC(N)=O [urea]
- survival of activated CD4+ T cells in the absence of exogenous cytokines (activated CD4+ T cells [1]): had no effect

Structure (SMILES): NCCCCN [putrescine]
- survival of activated CD4+ T cells in the absence of exogenous cytokines (activated CD4+ T cells [1]): decreased T cell survival

Structure (SMILES): O=C(O)[C@@H]1CCCN1 [proline, L-proline]
- survival of activated CD4+ T cells in the absence of exogenous cytokines (activated CD4+ T cells [1]): had no effect

Structure (SMILES): N=C(N)NCCCCN [agmatine]
- survival of activated CD4+ T cells in the absence of exogenous cytokines (activated CD4+ T cells [1]): decreased T cell survival

Structure (SMILES): NCCCCNCCCN [spermidine]
- survival of activated CD4+ T cells in the absence of exogenous cytokines (activated CD4+ T cells [1]): decreased T cell survival

Structure (SMILES): N[C@@H](CSCCB(O)O)C(=O)O [BEC, S-(2-boronoethyl)-L-cysteine]
- intracellular L-arginine levels (arginase): increase intracellular L-arginine levels

Structure (SMILES): CN(CC(=O)O)C(=N)N [creatine]
- survival of activated CD4+ T cells in the absence of exogenous cytokines (activated CD4+ T cells [1]): had no effect

Structure (SMILES): NC(=O)C1CCCc2c1[nH]c1ccc(Cl)cc21 (centres unmarked) [Ex-527]
- L-arginine-mediated increase in survival in the presence of the Sirtuin-1 inhibitor (activated CD4+ T cells [1]; Ex-527 5 μM added at activation): comparable to controls

Structure (SMILES): [N]=O [nitric oxide]
- T cell survival (role of nitric oxide) (activated CD4+ T cells [1]; nitric oxide synthase inhibitors DiMeArg or L-NAME at 1 mM): had no effect

Structure (SMILES): NC(=O)NCCC[C@H](N)C(=O)O [L-citrulline, reference compound]
- effects on metabolism (human naïve CD4+ T cells [2]): only had minor effects
- survival of activated CD4+ T cells in the absence of exogenous cytokines (activated CD4+ T cells [1]): had no effect

Structure (SMILES): N=C(NO)NCC[C@H](N)C(=O)O [norNOHA, N^ω-Hydroxy-nor-L-arginine]
- conversion of L-arginine into agmatine (96 h-activated T cells): did not affect
- conversion of L-arginine into ornithine, putrescine, spermidine and proline (96 h-activated T cells): markedly reduced
- survival of Arg2−/− T cells after IL-2 withdrawal [3]: did not affect survival
- survival of wild type T cells after IL-2 withdrawal [3]: increasing the survival
- intracellular L-arginine levels (arginase): increase intracellular L-arginine levels

Structure (SMILES): NCCCC[C@H](N)C(=O)O [L-lysine]
- L-arginine uptake (activated CD4+ T cells [4]): inhibit L-arginine uptake
- onset of proliferation (human naïve CD4+ T cells [5]; 3 mM L-lysine added to L-arginine-supplemented cultures): not affected
- survival of activated CD4+ T cells in the absence of exogenous cytokines (activated CD4+ T cells [1]): decreased T cell survival significantly

Structure (SMILES): N=C(N)NCCC[C@@H](N)C(=O)O [D-arginine]
- L-arginine uptake (activated CD4+ T cells [4]): inhibit L-arginine uptake
- onset of proliferation (human naïve CD4+ T cells [5]; 3 mM in medium): not affected
- survival of activated CD4+ T cells in the absence of exogenous cytokines (activated CD4+ T cells [1]): decreased T cell survival significantly

Structure (SMILES): Cl.N=C(N)NCCC[C@H](N)C(=O)O [L-arginine-HCl, L-arginine hydrochloride]
- survival of activated CD4+ T cells in the absence of exogenous cytokines (activated CD4+ T cells [1]): enhanced T cell survival to a similar extent

— patent US11167015B2, “Arginine and its use as a T cell modulator” (INSTITUTE FOR RESEARCH IN BIOMEDICINE, priority 2016, dated 2021)
